Data as given in patent US6399654B1, “Biflavanoids and derivatives thereof as antiviral agents” (priority 1995, dated 2002).
Counter-ions that a name gives are not always drawn. Like-named read-outs stand apart in the source and are kept apart here.

Columns and labels:
HIV-1 RT = target: T1, HIV-1 RT (Human immunodeficiency virus type 1 group M subtype B, UniProt P03366); assay: Anti-HIV-1 RT assay (recombinant enzyme); type: biochemical; conditions: for inhibition at 200 µg/mL: read-out: Anti-HIV-1 RT % Inhibition at 200 μg/ml
T1 construct: made in house; host or cells: Escherichia coli

Hepatitis B Virus (HBV) [1] = assay: HBV replication intermediates (RI, intracellular HBV DNA) in 2.2.15 cells; type: cell-based
Procedure: Test compounds were added daily for a nine continuous day period; the culture medium was collected and stored for analysis of extracellular (virion) HBV DNA after 0, 3, 6, and 9 days of treatment. The treated cells were lysed 24 hours following day 9 of treatment for the analysis of intracellular HBV genomic forms. The overall levels of HBV DNA (both extracellular and intracellular DNA) and the relative rate of HBV replication (intracellular DNA) were analyzed quantitatively. The analysis was performed using blot hybridization techniques and [^32P]-labeled HBV-specific probes. The HBV DNA levels were measured by comparison to known amounts of HBV DNA standards applied to every nitrocellulose membrane (gel or slot blot). An AMBIS beta scanner, which measures the radioactive decay of the hybridized probes directly from the nitrocellulose membranes, was used for the quantitative analysis. Standard curves, generated by multiple analyses, were used to correlate CPM measurements made by the beta scanner with relative levels of target HBV DNA. The levels of HBV virion DNA released into the culture medium were analyzed by a slot blot hybridization procedure. HBV DNA levels were then compared to those at day 0 to determine the effect of the test compound. A known positive drug was evaluated in parallel with test compounds in each test.

Hepatitis B Virus (HBV) [2] = assay: Inhibition of HBV replication in 2.2.15 cells, extracellular (virion) HBV DNA; conditions: for fold less active/potent than robustaflavone against HBV: in vitro assay against HBV; for SI (CC50/EC90), HBV Virion: selective index;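 on all read-outs here: extracellular virion HBV DNA in culture medium measured by slot blot hybridization with a 32P-labeled HBV probe, quantified against HBV DNA standards, after 9 days of daily dosing, compared with day 0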
Hepatitis B Virus (HBV) [3] = assay: HBV proteins and nucleic acids in 2.2.15 cells; type: cell-based; conditions: Day 9, 2.2.15 cells; robustaflavone @10 μM
Procedure: Values of HBV proteins were determined by semi-quantitative EIA performed as previously described.^83 For the EIA analyses, test samples-were diluted (2- to 10-fold) so that the assay values produced were within the linear dynamic range of the EIA assays. Standard curves using serial dilutions of positive assay controls were included in each set of EIA analyses. HBV surface antigen ([…]), preSI protein, and HBc antigen ([…]) are released as extracellular products and were therefore analyzed in culture medium obtained 24 h following the last treatment dose of oligonucleotides or 2′, 3′-ddc. HBV core antigen (HBcAg) is an intracellular viral protein and was assayed in cell extracts produced by Triton-X-100 lysis.^83
Cultures for HBV RNA were maintained on 6-well plates, cultures for HBV virion DNA analyses were maintained on either 96- or 24-well plates, and cultures for all other HBV parameters were maintained on 24-well plates.
The concentrations of antiviral agents used in these studies approximates the EC50 values of the individual agents against intracellular HBV DNA replication intermediates (HBV RI). Cultures were treated with the indicated agents for 9 days using standard procedures. Values reported are the levels of the indicated HBV markers at the end of the treatment period (“DAY 9”) expressed as a percentage (±standard deviation (S.D.) of the average levels in the control cultures at the beginning of the treatment period (“DAY 0”). The method of expression permits an analysis of the variation of the HBV markers in the untreated (control) cultures over the course of the treatment period. HBV nucleic acid levels were measured by standard blot hydridization (dot, Southern, or Northern). HBV protein levels were measured by standard semi-quantitative EIA methods. Cultures for HBV RNA were maintained in 6-well culture plates. The levels of each of two major classes of HBV RNA transcripts are listed separately. Cultures for all other HBV markers were maintained in 24-well culture plates. For each treatment, a total of 4 separate cultures were used for the analysis of each HBV marker at both DAY 0 and DAY 9.
Determination of Mechanism of Action. Measurements of intracellular and extracellular HBV DNA, 3.6 kb and 2.1 kb mRNA fragments, and HBsAg, HBeAg and HBcAg protein markers were conducted as previously described (93).

HCMV = HCMV CPE inhibition in HFF cells; conditions: HFF Cells
[4] = values in parentheses or in words
[5] = read-out: EC50 (50% effective dose), HBV Virion, 2.2.15 cells, extracellular (virion) HBV DNA, 9 days treatment
[6] = read-out: EC90 (90% effective dose), HBV Virion, 2.2.15 cells, extracellular (virion) HBV DNA, 9 days treatment
[7] = HIV-1 RT IC50 (50% inhibition dose)
[8] = Anti-HIV-1 RT IC50, values in parentheses or in words

**Q.** What does the source list for `O=C1C[C@@H](c2ccc(O)cc2)Oc2c1c(O)cc(O[C@@H]1O[C@H](CO)[C@@H](O)[C@H](O)[C@H]1O)c2[C@H]1C(=O)c2c(O)cc(O)cc2O[C@@H]1c1ccc(O)cc1` [GB-1a glucoside (15), GB-1a 7″-O-b-glucoside]?
**A.** activity against HIV-1 RT (in words) (HIV-1 RT): no activity; Anti-HIV-1 RT % Inhibition at 200 μg/ml (HIV-1 RT): 1.46%; Anti-HIV-1 RT IC50 (HIV-1 RT; [4]): Inactive

**Q.** `CC(=O)Oc1ccc(-c2cc(=O)c3c(OC(C)=O)c(-c4cc(-c5cc(=O)c6c(OC(C)=O)cc(OC(C)=O)cc6o5)ccc4OC(C)=O)c(OC(C)=O)cc3o2)cc1` [Robustaflavone Hexaacetate, robustaflavone hexaacetate] was tested. Which “SI (CC50/EC90), second value in parentheses” value (Hepatitis B Virus (HBV) [1]; Table 2, value in parentheses, not explained) did it give?
**A.** 163

**Q.** What about the EC50 (Hepatitis B Virus (HBV) [1]; Table 2, value in parentheses, not explained, read-out: EC50, second value in parentheses) of the same compound?
**A.** 3.9 µM

**Q.** What about the EC90 (Hepatitis B Virus (HBV) [1]; Table 2, value in parentheses, not explained, read-out: EC90, second value in parentheses) of the same compound?
**A.** 11 µM

**Q.** What about the “fold less active/potent than robustaflavone against HBV” value (Hepatitis B Virus (HBV) [2]) of the same compound?
**A.** approximately three-fold

**Q.** What about the EC50 (Hepatitis B Virus (HBV) [2]; [5]) of the same compound?
**A.** 0.73 µM

**Q.** What about the EC90 (Hepatitis B Virus (HBV) [2]; [6]) of the same compound?
**A.** 2.8 µM

**Q.** And the “SI (CC50/EC90), HBV Virion” value (Hepatitis B Virus (HBV) [2])?
**A.** > 360

**Q.** `Nc1ccn([C@H]2CC[C@@H](CO)O2)c(=O)n1` [2′,3′-ddC, 2′,3′-dideoxycytosine, reference compound] was tested. Which EC50 (Hepatitis B Virus (HBV) [1]; 2.2.15 cells, read-out: EC50, HBV replication intermediates (RI) (intracellular DNA)) did it give?
**A.** 2.4 µM

**Q.** What about the “Viral Antigens: HBeAg” value (Hepatitis B Virus (HBV) [3]) of the same compound?
**A.** 88 ± 10 % of Day 0 Control

**Q.** And the “Viral Antigens: HBsAg” value (Hepatitis B Virus (HBV) [3])?
**A.** 90 ± 12 % of Day 0 Control

**Q.** What about the “Viral Antigens: HbcAG” value (Hepatitis B Virus (HBV) [3]) of the same compound?
**A.** 91 ± 9 % of Day 0 Control

**Q.** What about the “Viral DNA: Extracellular DNA” value (Hepatitis B Virus (HBV) [3]) of the same compound?
**A.** 1 ± 1 % of Day 0 Control

**Q.** And the “Viral DNA: Intracellular DNA” value (Hepatitis B Virus (HBV) [3])?
**A.** 6 ± 1 % of Day 0 Control

**Q.** What about the “Viral mRNA: 3.6 kb and 2.1 kb mRNA (first column)” value (Hepatitis B Virus (HBV) [3]) of the same compound?
**A.** 94 ± 7 % of Day 0 Control

**Q.** What about the “Viral mRNA: 3.6 kb and 2.1 kb mRNA (second column)” value (Hepatitis B Virus (HBV) [3]) of the same compound?
**A.** 87 ± 9 % of Day 0 Control

**Q.** And the EC50 (Hepatitis B Virus (HBV) [2]; [5])?
**A.** 1.8 µM

**Q.** And the EC50 (Hepatitis B Virus (HBV) [2]; read-out: EC50, concentration necessary to decrease HBV DNA levels by 50%, 2.2.15 cells, combinations: with respect to RF)?
**A.** 1.4 µM

**Q.** And the EC90 (Hepatitis B Virus (HBV) [2]; [6])?
**A.** 94 µM

**Q.** And the “SI (CC50/EC90), HBV Virion” value (Hepatitis B Virus (HBV) [2])?
**A.** 28

**Q.** How did the “fold less active/potent than robustaflavone against HBV” value (Hepatitis B Virus (HBV) [2]) turn out when `COc1ccc(-c2cc(=O)c3c(OC)c(-c4cc(-c5cc(=O)c6c(OC)cc(OC)cc6o5)ccc4OC)c(OC)cc3o2)cc1` [Robustaflavone hexamethyl ether, hexa-O-methylrobustaflavone] was run?
**A.** ~10 fold

**Q.** What about the EC50 (Hepatitis B Virus (HBV) [2]; [5]) of the same compound?
**A.** 2.9 µM

**Q.** And the EC90 (Hepatitis B Virus (HBV) [2]; [6])?
**A.** 28 µM

**Q.** What about the “SI (CC50/EC90), HBV Virion” value (Hepatitis B Virus (HBV) [2]) of the same compound?
**A.** >36

**Q.** With `COc1cccc2c1C(=O)c1c(O)c3c(c(O)c1C2=O)C[C@@](O)(C(C)=O)C[C@@H]3O[C@H]1C[C@H](N)[C@H](O)[C@H](C)O1` [daunomycin, reference compound] as the compound, how does the IC50 (HIV-1 RT; [7]) read?
**A.** 237 µM

**Q.** For `COc1ccc([C@@H]2Oc3cc(OC)cc(OC)c3C(=O)[C@H]2c2c(OC)cc(OC)c3c(=O)cc(-c4ccc(OC)c(OC)c4)oc23)cc1` [morelloflavone heptamethyl ether (8), morelloflavone heptamethyl ether], which “activity against HIV-1 RT (in words)” value (HIV-1 RT) is on record?
**A.** inactive

**Q.** For `O=C1c2c(O)cc(O)cc2O[C@@H](c2ccc(O)cc2)[C@@H]1c1c(O)cc(O)c2c(=O)cc(-c3ccc(O)cc3)oc12` [Volkensiflavone (5), volkensiflavone], which “activity against HIV-1 RT (in words)” value (HIV-1 RT) is on record?
**A.** weakly active

**Q.** And the inhibition at 200 µg/mL (HIV-1 RT)?
**A.** 45.3%

**Q.** How did the “HCMV CPE Inhibition EC50” value (HCMV) turn out when `Nc1nc2c(ncn2COC(CO)CO)c(=O)[nH]1` [GVC, reference compound] was run?
**A.** 0.4 µg/mL

**Q.** Which results are given for `O=c1cc(-c2ccc(O)cc2)oc2cc(O)cc(O)c12` [Apigeriin, 4′,5,7-trihydroxyflavone, reference compound]?
**A.** activity against HIV-1 RT (in words) (HIV-1 RT): moderate activity; IC50 (HIV-1 RT; [8]): 443 µM; inhibition at 200 µg/mL (HIV-1 RT): 72%

**Q.** How did the “activity against HIV-1 RT (in words)” value (HIV-1 RT) turn out when `O=C1CC(c2ccc(O)cc2)Oc2cc(O)cc(O)c21` (stereo not drawn) [Naringenin, 4′,5,7-trihydroxyflavanone, reference compound] was run?
**A.** slight inhibition

**Q.** And the inhibition at 200 µg/mL (HIV-1 RT)?
**A.** 34.9%

**Q.** What does the source list for `O=c1cc(-c2ccc(OS(=O)(=O)O)c(-c3c(OS(=O)(=O)O)cc4oc(-c5ccc(OS(=O)(=O)O)cc5)cc(=O)c4c3O)c2)oc2cc(OS(=O)(=O)O)cc(O)c12` [Robustaflavone tetrasulfate (17), robustaflavone-7,4′,7″,4′″-tetrasulfate K-salt]?
**A.** IC50 (HIV-1 RT; [8]): 144 µM; IC50 (HIV-1 RT; [7]): 168 µM; inhibition at 200 µg/mL (HIV-1 RT): 95.5%; anti-HBV activity (in words) (Hepatitis B Virus (HBV) [2]; 2.2.15 cells): extremely effective; EC50 (Hepatitis B Virus (HBV) [2]; Hepatitis B virus, 216 h, read-out: EC50 (50% effective dose), HBV Virion, 2.2.15 cells, extracellular (virion) HBV DNA, 9 days treatment): 0.4 µM; EC90 (Hepatitis B Virus (HBV) [2]; Hepatitis B virus, 216 h, read-out: EC90 (90% effective dose), HBV Virion, 2.2.15 cells, extracellular (virion) HBV DNA, 9 days treatment): 3.6 µM; SI (CC50/EC90), HBV Virion (Hepatitis B Virus (HBV) [2]): 110

**Q.** Which “HIV-1 RT IC50 (50% inhibition dose)” value (HIV-1 RT) does the source give for `O=C1C[C@@H](c2ccc(O)c(O)c2)Oc2c1c(O)cc(O)c2[C@H]1C(=O)c2c(O)cc(O)cc2O[C@@H]1c1ccc(O)cc1` [GB-2a(16), GB-2a] here?
**A.** 94.6 µg/mL

**Q.** And the “Anti-HIV-1 RT % Inhibition at 200 μg/ml” value (HIV-1 RT)?
**A.** 96%

**Q.** And the IC50 (HIV-1 RT; values in parentheses or in words, read-out: Anti-HIV-1 RT IC50)?
**A.** 170 µM

**Q.** `COc1ccc(C2CC(=O)c3c(OC)cc(OC)c(C4C(=O)c5c(OC)cc(OC)cc5OC4c4ccc(OC)cc4)c3O2)cc1` (stereo not drawn) [GB-1a Me6(14), GB-1a hexamethyl ether] was tested. Which “activity against HIV-1 RT (in words)” value (HIV-1 RT) did it give?
**A.** inactive

**Q.** What about the “Anti-HIV-1 RT IC50” value (HIV-1 RT; [4]) of the same compound?
**A.** Inactive
